Key:
Brg1fl/fl(ERD) ESCs = test: Cell cycle analysis (BrdU/7-AAD FACS) with or without caffeine; format: cell-based, mouse; conditions: caffeine added to media 2 h before BrdU incubation; FIG. 1D
From the text: FIG. 1A-FIG. 1F. BRG1 associates with Topo2A and regulates its function. FIG. 1A, Anaphase bridges in Brg1^fl/fl and Brg1^fl/fl(ERD) ESCs. Data represent number of slides from four independent experiments±s.e.m. FIG. 1B, Co-immunoprecipitation of BRG1 and Topo2A from nuclear lysates. FIG. 1C, DNA content in Brg1^fl/fl and Brg1^fl/fl(ERD) ESCs after release from double thymidine block. FIG. 1D, Cell cycle analysis of Brg1^fl/fl and Brg1^fl/fl(ERD) ESCs with or without caffeine, an ATM/ATR inhibitor. FIG. 1E, Data represent five independent histone H3 serine 10 phosphorylation (H3(S10)P cell cycle analyses±s.e.m. FIG. 1F, Data represent the mean of the average chromosome length per cell from 40 cells from metaphase spreads of Brg1^fl/fl and Brg1^fl/fl(ERD) MEFs from two independent experiments.
The cell cycle analysis was performed using BD Biosciences BrdU-FITC FACS kit. ESCs were incubated with BrdU for 1 h and MEFs were incubated with BrdU for 4 h. Brg1^fl/fl and Brg1^fl/fl(ERD) ESCs were analysed 72 h after tamoxifen treatment. Caffeine was added to media 2 h before BrdU incubation. To determine the percent of cells in G2/M, DNA was stained with 7-AAD and analysed by FACS.

[1] = test system: ARID1A wild-type cells (293T and ES2) and ARID1A mutant cells (Hec1b, SKOV3, T47D, and TOV21G); test: Synthetic lethal screen, Cell Titer Blue viability after treatment with topoisomerase inhibitors; format: cell-based; conditions: ARID1A mutant vs wild-type cell lines; IC50 (μM) only plotted in FIG. 11A-C; 72 h after compound addition
Procedure: FIG. 11A-FIG. 11C. Synthetic lethal screen comparing the sensitivity of ARID1A wild-type cells (293T and ES2) and ARID1A mutant cells (Hec1b, SKOV3, T47D, and TOV21G) to treatment with topoisomerase inhibitors. Values of IC50 (μM) are plotted on the y-axis, with error bars as shown. FIG. 11A: treatment with etoposide; FIG. 11B: treatment with doxorubicin; FIG. 11C: treatment with ICRF-193.
In each case, 1500-2000 cells were plated in 100 ul per 384 well clear bottom black plate (E&K Scientific EK-30091). After 24 hours, doses of the listed compound diluted in DMSO were pinned into the plates. After 48 hours, 10 ul of Cell Titer Blue (Promega) was added, and the cells were placed back in the incubator. Fluorescence was read after another 24 hours. IC50 values (μM) are reported on the y-axis.

[2] = test system: NCI60 non small cell lung cancer lines expressing BRG1/BRM or deficient in both; conditions: BRG1/BRM-deficient vs expressing NCI60 lung lines; IC50 (μM) only plotted in FIG. 12A-B; CellMiner data; cited from earlier work

Compound | effect on G2/M arrest (Brg1fl/fl(ERD) ESCs) | sensitivity of cell lines carrying mutations in BAF subunits to the topoisomerase inhibitor [1] | sensitivity of cell lines carrying mutations in BAF subunits to the topoisomerase inhibitor [2]
Cn1c(=O)c2c(ncn2C)n(C)c1=O [Caffeine] | overrides the G2/M arrest | – | –
COc1cccc2c1C(=O)c1c(O)c3c(c(O)c1C2=O)C[C@@](O)(C(=O)CO)C[C@@H]3O[C@H]1C[C@H](N)[C@H](O)[C@H](C)O1 [doxorubicin] | – | decreased sensitivity | decreased sensitivity
COc1cc([C@@H]2c3cc4c(cc3[C@@H](O[C@@H]3O[C@@H]5CO[C@@H](C)O[C@H]5[C@H](O)[C@H]3O)[C@H]3COC(=O)[C@H]23)OCO4)cc(OC)c1O [etoposide] | – | decreased sensitivity | decreased sensitivity
ICRF-193 | – | no difference in the sensitivity | –

From patent publication US10976320B2, “Methods for identifying and treating cancer patients” (The Board of Trustees of the Leland Stanford Junior …, priority 2013, dated 2021)
